Experimental data from PubChem BioAssay (NCI).
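Five concentrations, 48 hours, 96-well plates. TGI marks complete inhibition of growth.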

Experiments:
Assay in all cases: NCI tumour cell line growth inhibition, 48 h
OVCAR-8 ovarian = tested on: OVCAR-8 ovarian
OVCAR-3 ovarian = tested on: OVCAR-3 ovarian
M14 melanoma = tested on: M14 melanoma
MDA-MB-231 breast = tested on: MDA-MB-231 breast
SF-539 CNS = tested on: SF-539 CNS
UACC-62 melanoma = tested on: UACC-62 melanoma
RXF 393 renal = tested on: RXF 393 renal
HS 578T breast = tested on: HS 578T breast
T-47D breast = tested on: T-47D breast
A498 renal = tested on: A498 renal
SK-OV-3 ovarian = tested on: SK-OV-3 ovarian
UACC-257 melanoma = tested on: UACC-257 melanoma
ACHN renal = tested on: ACHN renal
HOP-62 NSCLC = tested on: HOP-62 NSCLC
EKVX NSCLC = tested on: EKVX NSCLC
SNB-19 CNS = tested on: SNB-19 CNS
PC-3 prostate = tested on: PC-3 prostate
NCI-H226 lung = tested on: NCI-H226 lung
U251 CNS = tested on: U251 CNS
NCI-H460 lung = tested on: NCI-H460 lung
HCC-2998 colon = tested on: HCC-2998 colon
SK-MEL-28 melanoma = tested on: SK-MEL-28 melanoma
HOP-92 NSCLC = tested on: HOP-92 NSCLC
MDA-N = tested on: MDA-N
SK-MEL-5 melanoma = tested on: SK-MEL-5 melanoma
OVCAR-5 ovarian = tested on: OVCAR-5 ovarian
RPMI-8226 leukemia = tested on: RPMI-8226 leukemia
KM12 colon = tested on: KM12 colon
NCI-H23 lung = tested on: NCI-H23 lung
SK-MEL-2 melanoma = tested on: SK-MEL-2 melanoma
MCF7 breast = tested on: MCF7 breast
SW-620 colon = tested on: SW-620 colon
LOX IMVI melanoma = tested on: LOX IMVI melanoma
SN12C renal = tested on: SN12C renal
SF-295 CNS = tested on: SF-295 CNS
A549 NSCLC = tested on: A549 NSCLC
UO-31 renal = tested on: UO-31 renal
HCT-116 colon = tested on: HCT-116 colon
CCRF-CEM leukemia = tested on: CCRF-CEM leukemia
HCT-15 colon = tested on: HCT-15 colon
TK-10 renal = tested on: TK-10 renal
NCI-H522 lung = tested on: NCI-H522 lung
BT-549 breast = tested on: BT-549 breast
SF-268 CNS = tested on: SF-268 CNS
MDA-MB-435 = tested on: MDA-MB-435
786-0 renal = tested on: 786-0 renal
COLO 205 colon = tested on: COLO 205 colon
OVCAR-4 ovarian = tested on: OVCAR-4 ovarian
HL-60(TB) leukemia = tested on: HL-60(TB) leukemia
HT29 colon = tested on: HT29 colon
MALME-3M melanoma = tested on: MALME-3M melanoma
IGROV1 ovarian = tested on: IGROV1 ovarian
DU-145 prostate = tested on: DU-145 prostate
MOLT-4 leukemia = tested on: MOLT-4 leukemia
NCI/ADR-RES ovarian = tested on: NCI/ADR-RES ovarian

Measured: TGI

C[N+]1(C)C2Cc3ccccc3C1Cc1ccccc12
> 100 µM: OVCAR-8 ovarian | OVCAR-3 ovarian | M14 melanoma | MDA-MB-231 breast | SF-539 CNS | UACC-62 melanoma | RXF 393 renal | HS 578T breast | T-47D breast | A498 renal | SK-OV-3 ovarian | UACC-257 melanoma | ACHN renal | HOP-62 NSCLC | EKVX NSCLC | SNB-19 CNS | PC-3 prostate | NCI-H226 lung | U251 CNS | NCI-H460 lung | HCC-2998 colon | SK-MEL-28 melanoma | HOP-92 NSCLC | MDA-N | SK-MEL-5 melanoma | OVCAR-5 ovarian | RPMI-8226 leukemia | KM12 colon | NCI-H23 lung | SK-MEL-2 melanoma | MCF7 breast | SW-620 colon | LOX IMVI melanoma | SN12C renal | SF-295 CNS | A549 NSCLC | UO-31 renal | HCT-116 colon | CCRF-CEM leukemia | HCT-15 colon | TK-10 renal | NCI-H522 lung | BT-549 breast | SF-268 CNS | MDA-MB-435 | 786-0 renal | COLO 205 colon | OVCAR-4 ovarian | HL-60(TB) leukemia | HT29 colon | MALME-3M melanoma | IGROV1 ovarian | DU-145 prostate | MOLT-4 leukemia | NCI/ADR-RES ovarian
